# Data from US11878970B2, “Allosteric chromenone inhibitors of phosphoinositide 3-kinase (PI3K) for the treatment of disease” (Petra Pharma Corporation, priority 2021, dated 2024).
# pIC50: −log10 of the molar value.
# Assays:
# [1] = target: T1, PI3K-α (PIK3CA) wild-type (WT), p110α/p85α complex (Homo sapiens, UniProt P42336); assay: PI3K-alpha kinase (PIK3CA) biochemical activity, ADP-Glo, wild-type; conditions: Soy PI lipid substrate
# T1 construct: Recombinant, catalytically active human full length PIK3KA Wild-type and H1047R mutant; 6×His (N); purchased EMD Millipore Sigma 14-602M
# Description: (§1) PI3K-Alpha Kinase (PIK3CA) Activity, Wild-Type and H1047R Mutant and Determining IC50 Values for Inhibitors
# (§2) Recombinant, catalytically active human full length PIK3KA Wild-type and H1047R mutant were purchased as 1:1 complex of N-terminal 6×his tagged p110α (catalytic) and untagged p85α (regulatory subunit) from EMD Millipore Sigma (cat. no. 14-602M and 14-792M, respectively). PIP2diC8 (Avanti Polar Lipids Inc., cat. no. 850185) or Soy PI (Avanti Polar Lipids Inc., cat. No. 840044P) was used as lipid substrate. PIP2diC8 or PI lyophilized powder was dissolved in milliQ water to a concentration of 1 mM just before use. 10 mM stock compounds in DMSO were serially diluted 1:3 to generate a 10-point curve and plated using an acoustic liquid handler system (Echo 550 series instrument, Labcyte). A 10× intermediate compound plate (200 uM starting compound concentration and 10% DMSO) was prepared before starting the reaction. A typical reaction mixture (50 uL) comprised 40 mM HEPES buffer, pH 7.4, 25 mM MgCl2, 0.01% v/v triton-X-100, 1% v/v DMSO, 20 mM NaCl, 1-5 nM WT or H1047R PI3K protein, 20 uM ATP, and 50 uM PIP2diC8 or Soy PI. 1% DMSO buffer alone without test compound was employed as MAX control (full activity in the absence of any inhibitor), and no enzyme control was used to determine the level of background Adenosine 5′-diphosphate (ADP) (MIN control). First, Wild-type (WT) and H1047R mutant protein in kinase buffer with all components except ATP were incubated with or without compound at 27° C. for 1 h. After the pre-incubation, the reaction was initiated by the addition of 20 uL of 50 uM ATP (20 uM final concentration). The reaction was allowed to proceed until about 10% conversion of ATP (2 uM ADP) at 27° C. After that time, 5 uL of reaction was mixed with 5 uL of ADP-Kinase Glo Reagent (ADP-Glo Kinase assay kit, Promega cat. no. V9102) supplemented with MgCl2 10 mM to stop the reaction and deplete the remaining ATP for 40 min at room temperature. Then, 10 uL of Kinase Detection Reagent (ADP-Glo Kinase assay kit, Promega cat. no. V9102) was added to simultaneously convert ADP to ATP and allow the newly synthesized ATP to be measured using a luciferase/luciferin reaction. After 30 min at room temperature the light generated was measured using a luminometer (EnVision plate reader, Perkin Elmer). Process data through Genedata-Screener tool. Relative IC50 values are determined using luminescence units by calculating percent inhibition with respect to on-plate “MIN” and “MAX” controls. Data was analyzed using a 4-parameter nonlinear logistic equation (four-parameter logistic concentration-response curve): Y=bot+[(top−bot)/1+(x/IC50)slope] where Y=% inhibition, X=concentration yielding y % inhibition, Bottom=minimum value of y attained by curve, Top=maximum value of y attained by curve and Slope=steepness of curve at IC50. % Inh=[(median Max−x/median Max−median Min)]·100 IC50: concentration of compound that reduces a given response (ligand binding, enzyme response) by 50%. IC50 relative: concentration giving half the compound's maximum response.
# [2] = target: T2, PI3K-α (PIK3CA) H1047R mutant, p110α/p85α complex (Homo sapiens, UniProt P42336, H1047R); assay: PI3K-alpha kinase (PIK3CA) biochemical activity, ADP-Glo, H1047R mutant; conditions: Soy PI lipid substrate
# T2 construct: Recombinant, catalytically active human full length PIK3KA Wild-type and H1047R mutant; 6×His (N); purchased EMD Millipore Sigma 14-792M
# Description: as §1, §2
# T2 sequence (P42336 whole entry H1047R): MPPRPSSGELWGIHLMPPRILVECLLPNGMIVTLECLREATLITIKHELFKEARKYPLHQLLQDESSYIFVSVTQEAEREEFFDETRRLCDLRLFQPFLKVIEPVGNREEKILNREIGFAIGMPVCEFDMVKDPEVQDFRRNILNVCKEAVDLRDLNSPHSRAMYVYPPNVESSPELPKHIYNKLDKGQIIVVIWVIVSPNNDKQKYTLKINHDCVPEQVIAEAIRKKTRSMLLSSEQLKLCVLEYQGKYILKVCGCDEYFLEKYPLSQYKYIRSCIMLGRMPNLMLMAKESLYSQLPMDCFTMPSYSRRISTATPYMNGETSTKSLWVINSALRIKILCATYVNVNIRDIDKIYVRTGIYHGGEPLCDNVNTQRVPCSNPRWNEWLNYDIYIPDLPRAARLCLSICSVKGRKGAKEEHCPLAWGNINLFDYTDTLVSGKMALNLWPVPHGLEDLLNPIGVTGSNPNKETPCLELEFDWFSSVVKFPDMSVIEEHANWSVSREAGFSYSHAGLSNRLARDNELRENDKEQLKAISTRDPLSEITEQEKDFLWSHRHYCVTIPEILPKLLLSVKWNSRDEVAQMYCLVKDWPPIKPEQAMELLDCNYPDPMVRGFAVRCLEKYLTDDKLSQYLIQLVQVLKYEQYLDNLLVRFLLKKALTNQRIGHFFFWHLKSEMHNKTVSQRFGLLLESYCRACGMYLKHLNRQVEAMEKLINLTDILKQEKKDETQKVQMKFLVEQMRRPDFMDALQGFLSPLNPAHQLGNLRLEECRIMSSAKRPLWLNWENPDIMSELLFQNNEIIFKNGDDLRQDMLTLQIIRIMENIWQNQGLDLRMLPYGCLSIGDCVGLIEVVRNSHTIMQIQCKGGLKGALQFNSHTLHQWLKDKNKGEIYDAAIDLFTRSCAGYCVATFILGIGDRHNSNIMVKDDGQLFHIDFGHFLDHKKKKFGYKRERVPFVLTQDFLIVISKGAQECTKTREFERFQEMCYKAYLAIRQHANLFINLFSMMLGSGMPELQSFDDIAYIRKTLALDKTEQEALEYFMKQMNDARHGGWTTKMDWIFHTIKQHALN
# T2 sequence (P27986 whole entry partner): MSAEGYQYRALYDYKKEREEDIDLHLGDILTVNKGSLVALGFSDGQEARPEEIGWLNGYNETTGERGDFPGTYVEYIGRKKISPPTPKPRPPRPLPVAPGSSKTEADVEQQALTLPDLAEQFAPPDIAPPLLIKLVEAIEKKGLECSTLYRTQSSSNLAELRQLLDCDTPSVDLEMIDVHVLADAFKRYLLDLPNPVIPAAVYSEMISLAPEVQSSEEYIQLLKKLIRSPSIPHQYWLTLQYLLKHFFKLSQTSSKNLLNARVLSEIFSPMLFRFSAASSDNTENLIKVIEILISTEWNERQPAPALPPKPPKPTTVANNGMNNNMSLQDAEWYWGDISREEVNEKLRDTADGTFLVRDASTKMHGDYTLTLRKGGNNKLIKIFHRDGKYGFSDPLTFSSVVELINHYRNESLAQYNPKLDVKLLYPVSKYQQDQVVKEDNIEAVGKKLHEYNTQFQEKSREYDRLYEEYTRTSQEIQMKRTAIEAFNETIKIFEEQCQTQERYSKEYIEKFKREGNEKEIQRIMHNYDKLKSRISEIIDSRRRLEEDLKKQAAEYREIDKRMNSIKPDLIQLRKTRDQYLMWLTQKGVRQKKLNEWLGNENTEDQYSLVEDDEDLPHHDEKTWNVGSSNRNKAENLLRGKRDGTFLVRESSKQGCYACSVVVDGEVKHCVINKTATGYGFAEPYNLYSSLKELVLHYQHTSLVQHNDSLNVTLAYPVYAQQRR
compound,measurement,setting,value
"Cc1c(-c2ccc3nn(C)cc3c2)oc2c(C(C)Nc3ccccc3C(=O)O)cc(F)cc2c1=O (single isomer, unassigned) [Example 57, 2-[1-[6-Fluoro-3-methyl-2-(2-methylindazol-5-yl)-4-oxo-chromen-8-yl]ethylamino]benzoic acid]",pIC50,[1],5.30 to 6.00
same,pIC50,[2],5.30 to 6.00
"Cc1cc(C(C)Nc2ccccc2C(=O)O)c2oc(-c3ccc4c(c3)CC(=O)N4C)cc(=O)c2c1 (single isomer, unassigned) [Example 62, 2-[1-[6-Methyl-2-(1-methyl-2-oxo-indolin-5-yl)-4-oxo-chromen-8-yl]ethylamino]benzoic acid]",pIC50,[1],5.30 to 6.00
same,pIC50,[2],> 6.30
"Cc1cc(C(C)Nc2ccccc2C(=O)O)c2oc(-c3cn4ccccc4n3)cc(=O)c2c1 (single isomer, unassigned) [Example 66, 2-[1-(2-Imidazo[1,2-a]pyridin-2-yl-6-methyl-4-oxo-chromen-8-yl)ethylamino]benzoic acid]",pIC50,[1],5.00 to 5.30
same,pIC50,[2],5.30 to 6.00
"Cc1cc(C(C)Nc2ccccc2C(=O)O)c2oc(-c3ccc4ccnn4c3)cc(=O)c2c1 (single isomer, unassigned) [Example 67, 2-[1-(6-Methyl-4-oxo-2-pyrazolo[1,5-a]pyridin-6-yl-chromen-8-yl)ethylamino]benzoic acid]",pIC50,[1],5.30 to 6.00
same,pIC50,[2],> 6.30
"Cc1cc(C(C)Nc2ccccc2C(=O)O)c2oc(-c3ccc4nc(C)cn4n3)cc(=O)c2c1 (single isomer, unassigned) [Example 69, 2-[1-[6-Methyl-2-(2-methylimidazo[1,2-b]pyridazin-6-yl)-4-oxo-chromen-8-yl]ethylamino]benzoic acid]",pIC50,[1],5.30 to 6.00
same,pIC50,[2],> 6.30
"Cc1cc(C(C)Nc2ccccc2C(=O)O)c2oc(-c3ncc4cc(C)[nH]c4n3)cc(=O)c2c1 (single isomer, unassigned) [Example 72, 2-[1-[6-Methyl-2-(6-methyl-7H-pyrrolo[2,3-d]pyrimidin-2-yl)-4-oxo-chromen-8-yl]ethylamino]benzoic acid]",pIC50,[1],6.00 to 6.30
same,pIC50,[2],> 6.30
"Cc1cc(C(C)Nc2ccccc2C(=O)O)c2oc(-c3ccc4nccn4c3)cc(=O)c2c1 (single isomer, unassigned) [Example 73, 2-[1-(2-Imidazo[1,2-a]pyridin-6-yl-6-methyl-4-oxo-chromen-8-yl)ethylamino]benzoic acid]",pIC50,[1],5.30 to 6.00
same,pIC50,[2],> 6.30
"Cc1cc(C(C)Nc2ccccc2C(=O)O)c2oc(-c3ccc4nncn4c3)cc(=O)c2c1 (single isomer, unassigned) [Example 76, 2-[1-[6-Methyl-4-oxo-2-([1,2,4]triazolo[4,3-a]pyridin-6-yl)chromen-8-yl]ethylamino]benzoic acid]",pIC50,[1],< 5.00
same,pIC50,[2],> 6.30
"Cc1cc(C(C)Nc2ccccc2C(=O)O)c2oc(-c3ccn4c(C)nnc4c3)cc(=O)c2c1 (single isomer, unassigned) [Example 77, 2-[1-[6-Methyl-2-(3-methyl-[1,2,4]triazolo[4,3-a]pyridin-7-yl)-4-oxo-chromen-8-yl]ethylamino]benzoic acid]",pIC50,[1],5.00 to 5.30
same,pIC50,[2],> 6.30
"Cc1cc(C(C)Nc2ccccc2C(=O)O)c2oc(-c3ccc4nnc(C(C)C)n4c3)cc(=O)c2c1 (single isomer, unassigned) [Example 78, 2-[1-[2-(3-Isopropyl-[1,2,4]triazolo[4,3-a]pyridin-6-yl)-6-methyl-4-oxo-chromen-8-yl]ethylamino]benzoic acid]",pIC50,[1],< 5.00
same,pIC50,[2],5.30 to 6.00
"Cc1cc(C(C)Nc2ccccc2C(=O)O)c2oc(-c3ccc4cncn4c3)cc(=O)c2c1 (single isomer, unassigned) [Example 79, 2-[1-(2-Imidazo[1,5-a]pyridin-6-yl-6-methyl-4-oxo-chromen-8-yl)ethylamino]benzoic acid]",pIC50,[1],5.30 to 6.00
same,pIC50,[2],> 6.30
"Cc1cc(C(C)Nc2ccccc2C(=O)O)c2oc(-c3ccn4ccnc4c3)cc(=O)c2c1 (single isomer, unassigned) [Example 80, 2-[1-(2-Imidazo[1,2-a]pyridin-7-yl-6-methyl-4-oxo-chromen-8-yl)ethylamino]benzoic acid]",pIC50,[1],5.30 to 6.00
same,pIC50,[2],> 6.30
"Cc1cc(C(C)Nc2ccccc2C(=O)O)c2oc(-c3cnc4sc(C)nc4c3)cc(=O)c2c1 (single isomer, unassigned) [Example 81, 2-[1-[6-Methyl-2-(2-methylthiazolo[5,4-b]pyridin-6-yl)-4-oxo-chromen-8-yl]ethylamino]benzoic acid]",pIC50,[1],5.30 to 6.00
same,pIC50,[2],> 6.30
"Cc1cc(C(C)Nc2ccc(Cl)nc2C(=O)O)c2oc(-c3ccc4nn(C)cc4c3)cc(=O)c2c1 (single isomer, unassigned) [Example 83, 6-Chloro-3-[1-[6-methyl-2-(2-methylindazol-5-yl)-4-oxo-chromen-8-yl]ethylamino]pyridine-2-carboxylic acid]",pIC50,[1],6.00 to 6.30
same,pIC50,[2],> 6.30
"Cc1cc(C(C)Nc2ccccc2C(=O)O)c2oc(-n3cnc4ccccc43)cc(=O)c2c1 (single isomer, unassigned) [Example 84, 2-[1-[2-(Benzimidazol-1-yl)-6-methyl-4-oxo-chromen-8-yl]ethylamino]benzoic acid]",pIC50,[1],5.00 to 5.30
same,pIC50,[2],> 6.30
"Cc1cc(C(C)Nc2ccccc2C(=O)O)c2oc(-n3nnc4ccccc43)cc(=O)c2c1 (single isomer, unassigned) [Example 85, 2-[1-[2-(Benzotriazol-1-yl)-6-methyl-4-oxo-chromen-8-yl]ethylamino]benzoic acid]",pIC50,[1],5.30 to 6.00
same,pIC50,[2],> 6.30
"Cc1ccc2c(cnn2-c2cc(=O)c3cc(C)cc(C(C)Nc4ccccc4C(=O)O)c3o2)c1 (single isomer, unassigned) [Example 87, 2-[1-[6-Methyl-2-(5-methylindazol-1-yl)-4-oxo-chromen-8-yl]ethylamino]benzoic acid]",pIC50,[1],5.30 to 6.00
same,pIC50,[2],> 6.30
"Cc1cc(C(C)Nc2ccccc2C(=O)O)c2oc(-n3ncc4cc(F)ccc43)cc(=O)c2c1 (single isomer, unassigned) [Example 89, 2-[1-[2-(5-Fluoroindazol-1-yl)-6-methyl-4-oxo-chromen-8-yl]ethylamino]benzoic acid]",pIC50,[1],5.30 to 6.00
same,pIC50,[2],> 6.30
"Cc1cc(C(C)Nc2ccccc2C(=O)O)c2oc(-c3cccc4c3OCO4)c(C)c(=O)c2c1 (single isomer, unassigned) [Example 92, 2-[1-[2-(1,3-Benzodioxol-4-yl)-3,6-dimethyl-4-oxo-chromen-8-yl]ethylamino]benzoic acid]",pIC50,[1],5.30 to 6.00
same,pIC50,[2],> 6.30
"Cc1cc(C(C)Nc2ccccc2C(=O)O)c2oc(-c3nccc4cnn(C)c34)cc(=O)c2c1 (single isomer, unassigned) [Example 96, 2-[1-[6-Methyl-2-(1-methylpyrazolo[3,4-c]pyridin-7-yl)-4-oxo-chromen-8-yl]ethylamino]benzoic acid]",pIC50,[1],5.00 to 5.30
same,pIC50,[2],5.30 to 6.00
"Cc1cc(C(C)Nc2ccccc2C(=O)O)c2oc(-c3nccc4cn(C)nc34)cc(=O)c2c1 (single isomer, unassigned) [Example 98, 2-[1-[6-Methyl-2-(2-methylpyrazolo[3,4-c]pyridin-7-yl)-4-oxo-chromen-8-yl]ethylamino]benzoic acid]",pIC50,[1],5.00 to 5.30
same,pIC50,[2],5.00 to 5.30
